Experimental data taken from US20020119967A1, “Pharmaceutical composition for preventing or treating a disease associated with an excess of IL-12-production” (priority 2000, published 2002).
Read-outs that look alike come from different tables or passages of the source.

Experiments:
immature DC [1] = experiment: LPS plus IFN-γ-induced cytokine production by immature DC; type: cell-based, human; conditions: immature DC stimulated with LPS and IFN-γ, 24 h supernatants; for IL-12p70 production / TNF-α production: vs DMSO-treated DC
Method: FIG. 1 illustrates the inhibitory effect of PDE 4 inhibitors on LPS plus IFN-γ-induced cytokine production by immature DC. DC (2×10^4 cells/well) were stimulated with LPS and IFN-γ combined with the indicated concentrations of PDE4 inhibitors (Ariflo or Rolipram). Results are expressed as the mean cytokine production in ng/ml of duplicate cultures (24h supernatants). A: IL-12p70; B: TNF-α; C: IL-6. Cytokine production is expressed as ng/ml.
Venous blood from healthy donors is collected by venipuncture in sodium-heparin containing tubes (VT100H; Venoject, Terumo Europe, Leuven, Belgium). Peripheral blood mononuclear cells (PBMC) are isolated by density centrifugation on Lymphoprep (Nycomed, Torshov, Norway). Subsequently, PBMC are centrifuged on a Percoll (Pharmacia, Uppsala, Sweden) gradient consisting of three density layers (1.076, 1.059 and 1.045 g/ml). The light density fraction floating on the middle layer, which contained predominantly monocytes, is seeded in 24-well culture plates (Costar, Cambridge, Mass.) at a density of 5×10^5 cells/well. After 30 min of incubation at 37° C., nonadherent cells are removed; adherent cells are cultured in Iscove's modified Dulbecco's medium (Life Technologies, Paisley, U.K.) containing gentamycin (86 μg/ml; Duchefa, Haarlem, The Netherlands) and 1% FCS (Hyclone, Logan, Utah.) and supplemented with GM-CSF (500 U/ml) and IL-4 (250 U/ml) to obtain DC. At day 3, the media, including the supplements, are refreshed. At day 6, immature CD1a^+CD14^− DC are obtained.
Measurements of IL-12p70 levels in culture supernatants were performed by a specific solid-phase sandwich ELISA OptEI™ human IL-12P70 (Pharmingen San Diego, Calif.). Measurements of IL-6 and TNF-α were performed by ELISA using pairs of specific mAbs and recombinant cytokine standards obtained from BioSource International (Camarillo, Calif.). The limits of detection of these ELISA are as follows: IL-6, 20 pg/ml; IL-12p70, 3 pg/ml; and TNF-α, 20 pg/ml.
In contrast, the production of IL-6 by the immature DC was not affected by any of the inhibitors.

dendritic cells [2] = experiment: Expression of cell surface molecules (CD1a, CD86, ICAM-1, CD83) on DC matured in presence of PDE4 inhibitors, flow cytometry; type: cell-based, human
Description: Dendritic cells were matured for 2 days with LPS in the presence or absence of the PDE4 inhibitors Ariflo or Rolipram and analysed for the expression of cell surface molecules by flow cytometry. In the left corner of each figure the mean fluorescence intensity (Mn).
Dendritic cells were matured for 2 days with the maturation factors TNF-α plus IL-1β (referred to as MF) in the presence or absence of the PDE4 inhibitors Ariflo and Rolipram and analysed for the expression of cell surface molecules by flow cytometry. In the left corner of each figure the mean fluorescence intensity (Mn).
At day 6, the maturation of CD1a^+ DC was induced by a 2-day exposure to either LPS (250 ng/ml; Difco, Detroit, Mich.) or a combination of the cytokines rhIL-1β (10 ng/ml), and TNF-α (25 ng/ml) both obtained from Pharma Biotechnologie, Hannover, Germany. Maturation was induced in the absence or presence of PDE4 inhibitors (10 μM, unless stated otherwise) or PGE2 (10^−6 M; Sigma, St. Louis,Mass.). Where indicated, DC were kept in non-maturing conditions during 2 days.
The mouse mAbs against the following human molecules were used: CD1a (OKT6; Ortho Diagnostic System, Beerse, Belgium), ICAM-1, CD86 (Pharmingen, San Diego, Calif.), CD83 (HB15a, IgG2b; Immunotech, Marseille, France), followed by FITC-conjugated goat anti-mouse mAb (Jackson Immunoresearch Laboratories, West Grove, Pa.).
The maturation process of DC is associated with the appearance of CD83 and upregulation of co-stimulatory molecules like CD86. The study whether the presence of PDE4 inhibitors during DC maturation could affect the cell surface expression of the DC-associated marker CD1a, the co-stimulatory molecules CD86 and ICAM-1, and the DC maturation marker CD83, therefore the study of the expression of these markers after treatment has been performed.

Naive Th cells (ThN) = experiment: Naive T cell differentiation (Th1/Th2) after co-culture with DC matured in presence of PDE4 inhibitors, intracellular IFN-γ/IL-4 staining; type: cell-based, human; conditions: DC matured with MF plus 10 μM inhibitor
immature DC [3] = experiment: CD40-induced IL-12 production by immature DC stimulated with J558-CD40L cells; type: cell-based, human; conditions: 10 μM inhibitor, J558-CD40L stimulation, 24 h supernatant
Method: FIG. 2 illustrates the inhibitory effect of PDE4 inhibitors on CD40-induced IL12 production by immature DC. DC (2×10^4 cells/well) were stimulated with J558-CD40L cells in the presence of 10 μM of the indicated PDE4 inhibitors (Ariflo, Rolipram, Diazepino-indole or Pirazolo [4,3-e] diazepine). Results are expressed as the cytokine production in pg/ml of 24 h supernatant of cell cultures. The data shown are from one representative experiment out of three giving similar results. Venous blood from healthy donors is collected by venipuncture in sodium-heparin containing tubes ([…], Terumo Europe, Leuven, Belgium). Peripheral blood mononuclear cells (PBMC) are isolated by density centrifugation on Lymphoprep (Nycomed, Torshov, Norway). Subsequently, PBMC are centrifuged on a Percoll (Pharmacia, Uppsala, Sweden) gradient consisting of three density layers (1.076, 1.059 and 1.045 g/ml). The light density fraction floating on the middle layer, which contained predominantly monocytes, is seeded in 24-well culture plates (Costar, Cambridge, Mass.) at a density of 5×10^5 cells/well. […]

dendritic cells [4] = conditions: cited from earlier work
[5] = DC matured 2 days with TNF-α plus IL-1β (MF)

Molecule | IL-6 production (immature DC [1]) | IL-12p70 production (immature DC [1]) | TNF-α production (immature DC [1]) | expression of cell surface molecules (phenotype of mature DC) (dendritic cells [2]; DC matured 2 days with LPS) | expression of cell surface molecules (phenotype of mature DC) (dendritic cells [2]; [5]) | IFN-γ (%) positive cells (Naive Th cells (ThN); Experiment 1) | IL-4 positive cells (%) (Naive Th cells (ThN); Experiment 1) | IFN-γ (%) positive cells (Naive Th cells (ThN); Experiment 2) | IL-4 (%) positive cells (Naive Th cells (ThN); Experiment 2) | IFN-g (%) positive cells (Naive Th cells (ThN); Experiment 3) | IL-4 (%) positive cells (Naive Th cells (ThN); Experiment 3) | IL-12 production (immature DC [3]) | IL-12 production by dendritic cells (dendritic cells [4]; shown in the art) | IL-12 production by dendritic cells (dendritic cells [4])
COc1ccc([C@]2(C#N)CC[C@@H](C(=O)O)CC2)cc1OC1CCCC1 [Ariflo] | not affected | reduced ability to produce | reduced ability to produce | absence of phenotypic effect | absence of phenotypic effect | 4.7% | 15.1% | 29.6% | 2.0% | 24.0% | 6.2% | able to inhibit IL-12 production |  | 
COc1ccc(C2CNC(=O)C2)cc1OC1CCCC1 (stereo not drawn) [Rolipram] | not affected | reduced ability to produce | reduced ability to produce | absence of phenotypic effect | absence of phenotypic effect | 7.2% | 13.5% | 35.4% | 1.1% | 24.5% | 5.7% | able to inhibit IL-12 production |  | 
CCCCC[C@H](O)/C=C/[C@H]1[C@H](O)CC(=O)[C@@H]1C/C=C\CCCC(=O)O [prostaglandin E2] |  |  |  |  |  |  |  |  |  |  |  |  | inhibit IL-12 production | 
CC(C)(C)NCC(O)c1ccc(O)c(CO)c1 (stereo not drawn) [salbutamol] |  |  |  |  |  |  |  |  |  |  |  |  | inhibit IL-12 production | 
cholera toxin |  |  |  |  |  |  |  |  |  |  |  |  |  | inhibit IL-12 production
